Data reported in the supplement of paper PMC10307832.

Experiments:
Test in all cases: relative viability (nuclei count vs DMSO), 5 days (fraction); higher = more cells survive
Tipifarnib + Vorinostat = compound: Cn1cncc1[C@@](N)(c1ccc(Cl)cc1)c1ccc2c(c1)c(-c1cccc(Cl)c1)cc(=O)n2C [Tipifarnib] + O=C(CCCCCCC(=O)Nc1ccccc1)NO [Vorinostat] (partner 1 µM)
Method in brief: (§1)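 Lung cancer cell lines were pin-tool dosed in 1536-well plates on the day after seeding, with either a lone drug or a fixed anchor-drug dose plus five library-drug doses (not always all listed) in √10 steps. Nuclei were counted on 4× images after 5 days. Relative viability is the ratio of treated-well to vehicle-well nuclei counts, with each value a median of duplicate plates.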

Tipifarnib + Dasatinib = compound: Cn1cncc1[C@@](N)(c1ccc(Cl)cc1)c1ccc2c(c1)c(-c1cccc(Cl)c1)cc(=O)n2C [Tipifarnib] + Cc1nc(Nc2ncc(C(=O)Nc3c(C)cccc3Cl)s2)cc(N2CCN(CCO)CC2)n1 [Dasatinib] (partner 0.075 µM)
Method in brief: as §1

Tipifarnib + Pictilisib = compound: Cn1cncc1[C@@](N)(c1ccc(Cl)cc1)c1ccc2c(c1)c(-c1cccc(Cl)c1)cc(=O)n2C [Tipifarnib] + CS(=O)(=O)N1CCN(Cc2cc3nc(-c4cccc5[nH]ncc45)nc(N4CCOCC4)c3s2)CC1 [Pictilisib] (partner 1 µM)
Method in brief: as §1

Tipifarnib + Crizotinib = compound: Cn1cncc1[C@@](N)(c1ccc(Cl)cc1)c1ccc2c(c1)c(-c1cccc(Cl)c1)cc(=O)n2C [Tipifarnib] + C[C@@H](Oc1cc(-c2cnn(C3CCNCC3)c2)cnc1N)c1c(Cl)ccc(F)c1Cl [Crizotinib] (partner 1 µM)
Method in brief: as §1

Cell Line	relative viability (Tipifarnib + Vorinostat; first compound 0.01 µM)	relative viability (Tipifarnib + Vorinostat; first compound 0.03162 µM)	relative viability (Tipifarnib + Vorinostat; first compound 0.1 µM)	relative viability (Tipifarnib + Vorinostat; first compound 0.3162 µM)	relative viability (Tipifarnib + Vorinostat; first compound 1 µM)	relative viability (Tipifarnib + Dasatinib; first compound 0.01 µM)	relative viability (Tipifarnib + Dasatinib; first compound 0.03162 µM)	relative viability (Tipifarnib + Dasatinib; first compound 0.1 µM)	relative viability (Tipifarnib + Dasatinib; first compound 0.3162 µM)	relative viability (Tipifarnib + Dasatinib; first compound 1 µM)	relative viability (Tipifarnib + Pictilisib; first compound 0.01 µM)	relative viability (Tipifarnib + Pictilisib; first compound 0.03162 µM)	relative viability (Tipifarnib + Pictilisib; first compound 0.1 µM)	relative viability (Tipifarnib + Pictilisib; first compound 0.3162 µM)	relative viability (Tipifarnib + Pictilisib; first compound 1 µM)	relative viability (Tipifarnib + Crizotinib; first compound 0.01 µM)	relative viability (Tipifarnib + Crizotinib; first compound 0.03162 µM)	relative viability (Tipifarnib + Crizotinib; first compound 0.1 µM)	relative viability (Tipifarnib + Crizotinib; first compound 0.3162 µM)	relative viability (Tipifarnib + Crizotinib; first compound 1 µM)
NCI-H1651	0.545	0.54	0.537	0.507	0.335	0.474	0.209	0.389	0.363	0.196	0.632	0.566	0.562	0.512	0.319	0.951	0.856	0.893	0.789	0.843
NCI-H1666	1.05	0.874	1.02	0.883	0.878	0.791	0.779	0.785	0.748	0.605	0.464	0.393	0.419	0.332	0.367	0.958	0.816	0.761	0.626	0.843
NCI-H1734	0.791	0.553	0.534	0.368	0.364	0.465	0.389	0.347	0.274	0.22	0.486	0.356	0.38	0.331	0.346	0.802	0.589	0.425	0.444	0.352
NCI-H1755	0.75	0.764	0.781	0.739	0.596	0.477	0.39	0.365	0.348	0.271	0.466	0.358	0.423	0.344	0.274	0.83	0.79	0.818	0.742	0.688
NCI-H1915	0.544	0.43	0.373	0.305	0.336	0.241	0.182	0.201	0.175	0.16	0.581	0.513	0.511	0.397	0.31	0.7	0.684	0.431	0.405	0.425
NCI-H1944	0.509	0.382	0.309	0.289	0.285	0.213	0.173	0.161	0.17	0.169	0.38	0.313	0.348	0.295	0.279	1.12	0.92	0.624	0.568	0.609
NCI-H1975	0.639	0.682	0.588	0.485	0.491	0.383	0.356	0.412	0.238	0.185	0.347	0.293	0.255	0.228	0.259	0.93	0.989	0.717	0.566	0.49
NCI-H1993	0.819	0.446	0.489	0.468	0.497	0.596	0.515	0.495	0.527	0.516	0.686	0.812	0.861	0.888	0.913	0.77	0.749	0.617	0.595	0.661
NCI-H2009	0.604	0.411	0.405	0.577	0.504	0.31	0.232	0.217	0.211	0.21	0.981	0.579	0.524	0.466	0.319	0.994	1.01	0.789	0.563	0.578
NCI-H2023	0.598	0.366	0.289	0.186	0.137	0.561	0.427	0.325	0.299	0.217	0.238	0.212	0.203	0.169	0.159	0.491	0.495	0.302	0.27	0.333
NCI-H2085	0.767	0.575	0.62	0.53	0.445	0.296	0.264	0.262	0.25	0.288	0.513	0.478	0.446	0.541	0.43	0.685	0.446	0.433	0.414	0.469
NCI-H2087	0.668	0.363	0.292	0.248	0.222	0.764	0.405	0.289	0.264	0.21	0.796	0.682	0.587	0.427	0.385	0.529	0.534	0.268	0.438	0.377
NCI-H2126	0.797	0.752	0.763	0.768	0.409	0.652	0.673	0.648	0.578	0.391	0.491	0.492	0.518	0.478	0.391	0.977	1.01	1.02	0.924	0.904
NCI-H2170	0.831	0.774	0.697	0.637	0.335	0.688	0.805	0.601	0.636	0.462	0.317	0.291	0.295	0.278	0.222	1.33	1.04	1.1	0.857	0.644
NCI-H2228	0.398	0.453	0.493	0.314	0.3	0.531	0.52	0.456	0.266	0.184	0.369	0.388	0.325	0.202	0.243	0.413	0.443	0.45	0.293	0.348
NCI-H2347	0.547	0.515	0.497	0.431	0.476	0.278	0.293	0.256	0.303	0.277	0.613	0.478	0.658	0.648	0.404	0.53	0.546	0.57	0.476	0.486
